Measurements from patent publication US12503426B2, “Synthetic derivatives of oleoyl-lysophosphatidylinositol (oleoyl-LPI) and uses thereof” (LIPOVEXA SRL, priority 2017, dated 2025).

Tests used:
Glutag cells = assay: GLP-1 secretion by Glutag cells; assay type: cell-based, murine; details: Glutag cells, inhibitor 1 hour before oleoyl-LPI (PD98059 50 μM; H89 10 μM)
Experimental: Glutag cells were maintained in low glucose DMEM (Sigma) (1 g/L) containing 2.0 mM L-glutamine, 1.0 mM sodium pyruvate and supplemented with 10% FBS, 100 IU/ml penicillin, 100 μg/ml streptomycin at a 37° C. and 5% CO2.
(§1) Approximately 80,000 Glutag cells were plated in poly-L-lysine-coated 24-well culture plates and grown to about 80% confluence. NCI-H716 cells were seeded on growth factor reduced Matrigel™ (Becton Dickinson, Bedford, MA) in DMEM medium, supplemented with 10% FBS the day before the experiment. For NCI-H716 cells, approximately 25,000 cells were needed for this secretion experiment in order to have good stimulation with lower basal GLP-1 secretion. In brief, Glutag and NCI-H716 cells were washed twice and then incubated for 2 h with FBS-free DMEM containing 1% (M:C) alone (negative control), 10 μM forskolin as positive control (Sigma-Aldrich), or with different concentrations of Oleoyl-LPI. M:C was used as a solvent to prepare stock solutions of fatty acid derivatives and inhibitors. For secretion experiments, medium and cells were collected separately.
(§2) In separate studies, GLUTag or NCI-H716 cells were pre-treated for 1 hour with medium alone (1% DMSO, negative control), PD98059 (50 μM; Sigma Chemical Co.), H89 (10 μM; Santa Cruz) followed by treatment with oleoyl-LPI (20 μM), OEA (10 μM), AR231453(1 μM), PMA (10 μM) or forskolin (10 μM, positive control) in the presence of inhibitors, as appropriate, for about 2 h. Medium GLP-1 secretion was calculated as total GLP-1 content of medium normalised for the basal secretion of the control.
(§3) In order to investigate the role of different LPI species in enteroendocrine cells, murine (Glutag) and human (NCI-H716) L-cells were stimulated with the following different species of LPI: Arachidonyl-LPI, Stearoyl-LPI, Heptadecenoyl-LPI and oleoyl-LPI, as well as with OEA and LPC. Experiments were performed in duplicate, n=4 and the level of total GLP-1 was measured by ELISA.

ERK = ERK phosphorylation by Western blot, NCI-H716 cells; assay type: cell-based, human; details: pre-treatment 1 hour, 50 μM, then oleoyl-LPI
Experimental: When cell cultures reached 80-90%, media were removed and cells were washed twice with 1×PBS. The cells were lysed in 150 μl (for one well of a 6 well plate) of Triton X-100 lysis buffer, containing phosphatase inhibitor cocktail (1:1000) (Sigma Aldrich, UK) and protease inhibitor (1:1000, Sigma Aldrich, UK). Cells were detached with scrapers and lysate were collected and centrifuged at 10,000 rpm, 4° C. for 5 minutes. The supernatant was then transferred to a 1.5 ml microcentrifuge tube and used for protein quantification. Cell lysates were stored at −20° C. for longer storage. All lysates were prepared on ice.
Non-specific antibody binding was prevented by incubating the nitrocellulose membrane in 5% milk in PBS-0.05% Tween-20 (v/v) for 30 minutes on a rotating plate. The membrane was then washed in PBS-0.05% Tween-20 (v/v) and then incubated with the primary antibody diluted in PBS-0.05% Tween-20 (v/v) on a rotating plate overnight at 4° C. After 24 hours, the membrane was washed 5× for 5 minutes with PBS-0.05% Tween-20 (v/v), and then incubated on a rotating plate with the appropriate secondary antibody for 1 hour at room temperature. […]

NCI-H716 cells = assay: GLP-1 secretion by NCI-H716 cells (Examples 2-8); assay type: cell-based, human; details: NCI-H716 cells, inhibitor 1 hour before oleoyl-LPI (PD98059 50 μM; H89 10 μM)
Experimental: NCI-H716 cells were maintained in 75 cm^2 tissue culture flasks (Corning) in RPMI 1640 media containing 2.0 mM L-glutamine, 1.5 g/L sodium bicarbonate, 10 mM HEPES buffer, 1.0 mM sodium pyruvate, and 4.5 g/L glucose and supplemented with 10% FBS at a 37° C. and 5% CO2. When plating for experiment, cell adhesion and endocrine differentiation were initiated by growing cells in dishes coated with growth factor reduced Matrigel diluted at the ratio of 1:2 (Becton Dickinson, Bedford, MA) in high-glucose DMEM, 10% FBS, 2 mM glutamine, 100 IU/ml penicillin, and 100 μg/ml streptomycin as described previously by De Bruine, a P., Dinjens, W. N., van der Linden, E. P., Pijls, M. M., Moerkerk, P. T., & Bosman, F. T. (1993) The American Journal of Pathology, Vol 142(3), pp 773-782, the disclosure of which is incorporated herein in its entirety by reference.
as §1, §2, §3

GPR55 mRNA = assay: siRNA knockdown of GPR55 mRNA by real-time RT-PCR; assay type: cell-based, murine; details: Glutag cells, 48 hours post transfection
Experimental: Transfection was performed according to the “Lipofectamine transfection protocol” (Invitrogen, Life Technologies) and optimised for a 6-well plate format. Briefly, cells were plated in complete growth medium at a density of 3.0×10^5/well in a 6-well plate and incubated at 37° C./5% CO2. Twenty-four hours later, when cells were ˜60% confluent, transfection was performed in RNAse-free conditions. 300 nM of total siRNA pool and 4.0 μl of Lipofectamine transfection reagent were diluted in separate tubes in Optimem and incubated for 5 min at room temperature (RT). The contents of the tubes were carefully mixed and incubated again for 20 min at RT. Cells were washed twice with sterile 1×PBS and incubated in 300 μL of Optimem. After 20 min, transfection complexes were added to the cells drop wise. Cells were then incubated for 4 hours before adding Optimem containing 30% serum without antibiotic. Cells were further incubated at 37° C./5% CO2 for 48 h before secretion experiment. […]
Transfection efficiency was quantified by real-time RT-PCR. […]
RT-qPCR was performed according to manufacturer's instructions (Cat. No. K0222, Fermentas). […] The relative changes in gene expression quantification were calculated using the relative ddCT analysis mode of the ABI 7500 Real-Time PCR system software.

| Compound | oleoyl-LPI induced GLP-1 secretion with inhibitor pre-treatment (Glutag cells) | ERK phosphorylation (ERK) | oleoyl-LPI induced GLP-1 secretion with inhibitor pre-treatment (NCI-H716 cells) | knockdown of GPR55 mRNA (GPR55 mRNA) |
| --- | --- | --- | --- | --- |
| COc1cccc(-c2cc(=O)c3ccccc3o2)c1N [PD98059] | significantly reduced oleoyl-LPI induced GLP-1 secretion | substantially reduced ERK phosphorylation | significantly reduced oleoyl-LPI induced GLP-1 secretion | – |
| GPR55 siRNA: murine siRNA against GPR55, ACAGGGAAGUGGAGAGAUA (SEQ ID NO: 3) (listed as RNA, chemistry not given here; listed as Mus musculus) | – | – | – | 80% |
